# Residues, ends and D or L forms follow the SMILES beside them.
# Legend:
# CEM-SS cells = assay: Cell viability / cytotoxicity (MTS) in the HIV-1 assay; settings: peptide 10 micrograms per ml, MTS
# HIV-1IIIB = assay: HIV-1 antiviral assay (CPE reduction, MTS) in CEM-SS cells; type: cell-based; settings: peptide 10 micrograms per ml, 6 days post-infection
# [1] = tested on: hepatitis B virus (HBV) ayw strain; assay: HBV assay: secreted HBV DNA by real-time TaqMan PCR in HepG2-2.2.15 cells; type: cell-based; settings: test peptide 10 micrograms per ml; six days; HBV DNA in supernatant
# From the text: HepG2-2.2.15 is a stable cell line containing the hepatitis B virus (HBV) ayw strain genome (ATCC Cat. No. CRL-11997). Antiviral compounds blocking any late step of viral replication such as transcription, translation, pregenome encapsidation, reverse transcription, particle assembly and release can be identified and characterized using this cell line. In this assay, an active compound will reduce the production of secreted HBV from cells, measured by utilizing real time quantitative PCR (TaqMan) assay to directly and accurately measure HBV DNA copies.
# HepG2-2.2.15 cells were plated in 96-well microtiter plates. After 16-24 hours the confluent monolayer of HepG2-2.2.15 cells was washed and the medium was replaced with complete medium containing test peptide—10 micrograms per ml—in duplicate. […] Six days following the initial administration of the peptide, the cell culture supernatants was collected, treated with pronase and DNAse and then used in a real-time quantitative TaqMan PCR assay. The PCR-amplified HBV DNA was detected in real-time by monitoring increases in fluorescence signals that result from the exonucleolytic degradation of a quenched fluorescence probe molecule that hybridizes to the amplified HBV DNA. […] Antiviral activity was calculated from the reduction in HBV DNA levels (% virus control). […]
# [2] = Cell viability (dye uptake) in the HBV assay; type: cell-based; settings: human, HepG2-2.2.15 cells, test peptide 10 micrograms per ml
# HCMV strain AD169 = assay: HCMV plaque reduction assay in MRC-5 cells; type: cell-based; settings: HCMV AD169 in MRC-5 cells; peptide 10 micrograms per ml; 7-10 days
# From the text: (§1) Ganciclovir was used as positive control.
# [3] = Cytotoxicity testing (CellTiter 96) in MRC-5 cells; type: cell-based; settings: human, MRC-5 cells (human embryonal lung fibroblasts), 6 days incubation, read-out: % Cell viability
# From the text: as §1
# MRSA = assay: Methicillin Resistant Staphylococcus Aureus (MRSA) assay; type: cell-based; settings: MRSA growth; peptide 10 micrograms per ml; read visually
# Pseudomonas aeruginosa = Pseudomonas aeruginosa assay; type: cell-based; settings: Pseudomonas aeruginosa growth; peptide 10 micrograms per ml; read visually
# Streptococcus pneumoniae = Streptococcus pneumoniae assay; type: cell-based; settings: Streptococcus pneumoniae growth; peptide 10 micrograms per ml; read visually
# Human A549 cells [4] = assay: Propidium iodide cell cycle assay; type: cell-based; settings: 24 hours, test peptide 10 micrograms per ml, FACS
# From the text: Human A549 cells (carcinomic human alveolar basal epithelial cells) were utilized in the experiments employing the Propidium iodide cell cycle assay. The eukaryotic cell cycle is a series of events that take place in a cell leading to its replication. The regulation of the cell cycle involves steps crucial to the cell, including detecting and repairing genetic damage, and provision of various checks to prevent uncontrolled cell division. The molecular events that control the cell cycle are ordered and directional; that is, each process occurs in a sequential fashion. The cell cycle consists of four distinct phases: G1 phase, S phase, G2 phase (collectively known as interphase) and M phase. M phase is itself composed of two tightly coupled processes: mitosis, in which the cell's chromosomes are divided between the two daughter cells, and cytokinesis, in which the cell's cytoplasm divides forming distinct cells. Activation of each phase is dependent on the proper progression and completion of the previous one. Cells that have temporarily or reversibly stopped dividing are said to have entered a state of quiescence called Go phase. The relatively brief M phase consists of nuclear division and cytoplasmic division. The first phase within interphase, from the end of the previous M phase till the beginning of DNA synthesis is called G1 (G indicating gap or growth). During this phase the biosynthetic activities of the cell resume at a high rate. This phase is marked by synthesis of various enzymes that are required in S phase, mainly those needed for DNA replication. The ensuing S phase starts when DNA synthesis commences; when it is complete, all of the chromosomes have been replicated. The cell then enters the G2 phase, which lasts until the cell enters mitosis. Significant protein synthesis occurs during this phase, mainly involving the production of microtubules, which are required during the process of mitosis. […]
# Propidium iodide is an intercalating agent and a fluorescent molecule that can be used to stain DNA. […] After incubation for 40 min at 37° C., cells were analyzed in the FACS.
# [5] = tested on: Human Peripheral Blood Mononuclear Cells (PBMC); assay: T cell proliferation assay (PHA, 3H-thymidine); type: cell-based; settings: test peptide 10 micrograms per ml
# Description: (§2) Human Peripheral Blood Mononuclear Cells (PBMC) were obtained from normal human donors. The T cell proliferation was induced by stimulation of the cells with the T cell mitogen phytohemagglutinin (PHA), either in the absence (positive proliferation control), or in the presence of test peptide—10 micrograms per ml—to examine their effects on the T cell proliferating response. 10^5/well PBMC were plated in 96-well microtiter plates and assayed in duplicate with the peptide. Cell cultures were incubated at 37° C. for 3 days in a 5% CO2 incubator and were thereafter pulsed with 1 microCi/well ^3H-thymidine for additional 12 hours of culture. At the end of incubation time, the plates were harvested and the cells counted by liquid scintillation for the incorporation of ^3H-thymidine as a measure of T cell proliferation.
# [6] = tested on: Human Peripheral Blood Mononuclear Cells (PBMC); assay: B cell proliferation assay (SAC plus Interleukin-2, 3H-thymidine); type: cell-based; settings: test peptide 10 micrograms per ml
# Description: as §2, with “The B” for “The T”, “the B” for “the T”, “mitogen Staphylococcus aureus Cowans I (SAC) plus Interleukin-2,” for “mitogen phytohemagglutinin (PHA),”, “cell” for “cell proliferating”, “of B” for “of T”
# Human A549 cells [7] = assay: Apoptosis induction assay (Annexin-5); type: cell-based; settings: 24 hours, test peptide 10 micrograms per ml
# From the text: Human A549 cells (carcinomic human alveolar basal epithelial cells) were utilized in the experiments employing the Annexin-5 apoptosis assay. Annexin-5 is a member of a highly conserved protein family that binds acidic phospholipids in a calcium-dependent manner. […] Phosphatidylserine is translocated from the inner side of the plasma membrane to the outer layer when cells undergo death by apoptosis or cell necrosis and serves as a signal by which cell destined for death are recognized by phagocytes. Test peptide—10 micrograms per ml—were exposed for 24 hours to the A549 cells before they were analyzed for signs of apoptosis.
# Human A549 cells [8] = assay: Apoptosis prevention assay (Annexin-5, C2 ceramide); type: cell-based; settings: A549 cells pretreated 30 min, test peptide 10 micrograms per ml
# From the text: Human A549 cells (carcinomic human alveolar basal epithelial cells) were utilized in the experiments employing the Annexin-5 apoptosis assay. Annexin-5 is a member of a highly conserved protein family that binds acidic phospholipids in a calcium-dependent manner. […] Phosphatidylserine is translocated from the inner side of the plasma membrane to the outer layer when cells undergo death by apoptosis or cell necrosis and serves as a signal by which cell destined for death are recognized by phagocytes. A549 cells were pretreated for 30 min with test peptide—10 micrograms per ml—followed by the exposure to C2 ceramide. Ceramide mediates cell apoptosis through the activation of the mitogen activating protein kinase (MAPK) and the stress activated kinase (JNK/SAPK). C2 ceramide is a synthetic, membrane soluble analog of ceramide.
# [9] = tested on: spleen cells of Ovalbumin-immunized Balb/c mice; assay: Th1/Th2 cytokine profiling assay (Mouse Th1/Th2 Cytokine CBA Kit); type: cell-based; settings: test peptide 10 micrograms per ml; Ovalbumin restimulation, 72 hours
# From the text: The Balb/c mice (originated in 1923, it is a popular strain and is used in many different research disciplines. Also classified as an inbred from the production of 20 or more successive brother-sister matings, the Balb/c mouse is albino and small in size) were immunized on Days 1, 15, and 29 with Ovalbumin (Ovalbumin is the main protein found in egg white, commonly used to stimulate an immunological reaction in test animals) in PBS (5 micrograms/injection). On day 50, spleens of the mice were harvested (3 weeks after last boost with Ovalbumin). […] Thereafter, additional Ovalbumin was added to the cells at 10 micrograms/ml for in vitro restimulation of the cells. 72 hours later, cell supernatants were harvested and assayed using the Becton Dickinson Mouse Th1/Th2 Cytokine CBA Kit. This kit can be used to measure Interleukin-2 (IL-2), Interleukin-4 (IL-4), Interleukin-5 (IL-5), Interferon-γ (IFN-γ), and Tumor Necrosis Factor-α (TNF-α) protein levels in a single sample. The kit performance has been optimized for analysis of physiologically relevant concentrations ([…] levels) of specific cytokine proteins in tissue culture supernatants and serum samples.
# [10] = tested on: macrophages differentiated from Human PBMC; assay: TNF alpha production assay (LPS-stimulated macrophages, ELISA); type: cell-based; settings: test peptide 10 micrograms per ml, lipopolysaccharide 200 ng/ml, overnight
# Description: Human Peripheral Blood Mononuclear Cells (PBMC) were obtained from normal human donors. The macrophages were prepared by adherence of PBMC to the plastic wells of the plates. […] Not stimulated macrophages served as negative background control. After overnight incubation, supernatants from the control and LPS-stimulated cultures were harvested and assayed for TNF alpha production employing a TNF alpha specific ELISA.
# [11] = tested on: Primary Human endothelial cells (HUVEC); assay: Endothelial cell migration assay; type: cell-based; settings: 22 hours, test peptide 10 micrograms per ml
# HUVEC = assay: Endothelial tube formation assay; type: cell-based, Human; settings: 20 hours, test peptide 10 micrograms per ml
# From the text: Positive control was vehicle only.
# [12] = Cell viability / cytotoxicity (MTS) in the HIV-1 assay; settings: human, CEM-SS cells
compound,measurement,setting,value
"Cc1cn([C@H]2C[C@H](N=[N+]=[N-])[C@@H](CO)O2)c(=O)[nH]c1=O [AZT, reference compound]",% Cell viability,CEM-SS cells,97%
"CC(C)[C@H](NC(=O)[C@H](CC(=O)O)NC(=O)[C@H](CCCCN)NC(=O)[C@@H](N)CCCN=C(N)N)C(=O)N[C@@H](Cc1ccc(O)cc1)C(=O)O [Thymopentin, Arg-Lys-Asp-Val-Tyr-OH] (H-RKDVY-OH)",% CPE reduction in HIV-1 infected CEM-SS cells,HIV-1IIIB,0.0%
same,% inhibition of HBV replication in HEP G2 cells,[1],6.2%
same,"viability at 144 h, 10 micrograms per ml",[2],100%
same,% plaque reduction,HCMV strain AD169,1.4%
same,viability at 144 h,[3],100%
same,% inhibition,MRSA,0.0%
same,% inhibition,Pseudomonas aeruginosa,0.0%
same,% inhibition,Streptococcus pneumoniae,0.0%
same,Cell cycle analysis G0/G1,Human A549 cells [4],54.6
same,Cell cycle analysis G2/M,Human A549 cells [4],10.7
same,Cell cycle analysis S,Human A549 cells [4],34.8
same,% of PHA induced control,[5],89.1%
same,% of SAC/IL2 induced control,[6],94.4%
same,% of induction,Human A549 cells [7],0.6%
same,% prevention of ceramide induced apoptosis,Human A549 cells [8],0.0%
same,IFNγ spleen cells; TH1 response (% of control),[9],62.0 % of control
same,IL-2 spleen cells (% of control),[9],122.2 % of control
same,IL-4 spleen cells; TH2 response (% of control),[9],170.6 % of control
same,IL-5 spleen cells; TH2 response (% of control),[9],73.8 % of control
same,TNF-a spleen cells; TH1 response (% of control),[9],109.6 % of control
same,% of LPS induction,[10],108.9%
same,% inhibition of migration,[11],7%
same,% inhibition of tube formation,HUVEC,31%
same,viability at 10 micrograms per ml,[12],100%

# Source: patent publication US20100204156A1, “USE OF THYMOPENTIN AS A THERAPEUTIC AGENT” (priority 2007, published 2010)
